Data from BindingDB's records for doi:10.1016/j.bmc.2006.12.019 (Berlex, 2007).

How the values were obtained:
Assay in all cases: Enzyme Inhibition Assay
Prothrombin = Prothrombin (Homo sapiens, UniProt P00734)
Description: (§1) The enzyme activities were determined kinetically as the initial rate of cleavage of a peptide p-nitroanilide. Km for enzyme and substrate was determined using four substrate dilutions. Enzyme was incubated with test compounds for 10 min; the reaction was then started by the addition of the substrate. […] IC50 values for inhibitors were determined from the dose response curve by fitting the data to the Hill equation. Ki,app values were calculated as the IC50/2, with the IC50 value determined at a substrate concentration equal to Km

Serine protease 1 = target: T1, Serine protease 1 (Bos taurus, UniProt P00760)
T1 sequence (P00760 whole entry): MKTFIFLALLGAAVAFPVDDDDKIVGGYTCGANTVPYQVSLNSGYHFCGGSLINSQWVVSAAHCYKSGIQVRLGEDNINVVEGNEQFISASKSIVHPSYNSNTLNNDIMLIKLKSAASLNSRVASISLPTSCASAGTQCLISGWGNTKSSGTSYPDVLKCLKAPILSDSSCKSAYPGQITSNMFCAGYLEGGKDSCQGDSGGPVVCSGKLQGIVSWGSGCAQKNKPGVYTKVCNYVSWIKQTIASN
Description: as §1

Coagulation factor X = Coagulation factor X (Homo sapiens, UniProt P00742)
Chain of Coagulation factor X (P00742 41-179 limits assumed): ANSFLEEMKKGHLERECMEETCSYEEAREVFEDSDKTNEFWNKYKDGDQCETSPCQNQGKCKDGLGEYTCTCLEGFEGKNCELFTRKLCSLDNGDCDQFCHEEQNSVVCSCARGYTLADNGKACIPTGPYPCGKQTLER
Chain of Coagulation factor X (P00742 235-488 limits assumed): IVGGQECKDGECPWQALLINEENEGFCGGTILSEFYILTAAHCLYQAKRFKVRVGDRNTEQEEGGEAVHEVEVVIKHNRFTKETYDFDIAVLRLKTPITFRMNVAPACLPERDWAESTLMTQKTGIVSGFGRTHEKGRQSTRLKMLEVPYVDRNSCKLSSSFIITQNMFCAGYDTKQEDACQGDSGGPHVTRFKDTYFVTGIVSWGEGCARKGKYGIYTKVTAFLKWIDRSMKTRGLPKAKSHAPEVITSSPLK
Description: as §1

Compound | Ki (Prothrombin) [µM] | Ki (Serine protease 1) [µM] | Ki (Coagulation factor X) [µM]
CCCN1Cc2sc(C(=O)Nc3ccc(Cl)cc3C(=O)Nc3ccc(Cl)cc3)c(Cl)c2C1 [3-chloro-N-{4-chloro-2-[(4-chlorophenyl)carbamoyl]phenyl}-5-propyl-4H,5H,6H-thieno[2,3-c]pyrrole-2-carboxamide] | 3.2 |  | 0.0022
CCOC(=O)CN(C)Cc1csc(C(=O)Nc2ccc(Cl)cc2C(=O)Nc2ccc(Cl)cc2)c1Cl [ethyl 2-({[4-chloro-5-({4-chloro-2-[(4-chlorophenyl)carbamoyl]phenyl}carbamoyl)thiophen-3-yl]methyl}(methyl)amino)acetate] |  | > 5 | 
CN1CCN(Cc2csc(C(=O)Nc3ccc(Cl)cc3C(=O)Nc3ccc(Cl)cc3)c2Cl)CC1 [thiophene-containing non-amidine inhibitor, 31] |  | > 5 | 

Results, then the compound that gave them:

Ki (Prothrombin) [µM] | Ki (Serine protease 1) [µM] | Ki (Coagulation factor X) [µM] | Compound
> 5 | > 5 |  | Cc1ccc(NC(=O)c2sc3ccccc3c2Cl)c(C(=O)Nc2ccc(Cl)cc2)c1 [3-chloro-N-{2-[(4-chlorophenyl)carbamoyl]-4-methylphenyl}-1-benzothiophene-2-carboxamide]
 | > 5 |  | CN(C)Cc1ccc2c(Cl)c(C(=O)Nc3ccc(Cl)cc3C(=O)Nc3ccc(Cl)cc3)sc2c1 [3-chloro-N-{4-chloro-2-[(4-chlorophenyl)carbamoyl]phenyl}-6-[(dimethylamino)methyl]-1-benzothiophene-2-carboxamide]
 | > 5 |  | CN1CCN(Cc2c(C(=O)Nc3ccc(Cl)cc3C(=O)Nc3ccc(Cl)cc3)sc3ccccc23)CC1 [N-{4-chloro-2-[(4-chlorophenyl)carbamoyl]phenyl}-3-[(4-methylpiperazin-1-yl)methyl]-1-benzothiophene-2-carboxamide]
 | > 5 |  | CN(C)Cc1c(C(=O)Nc2ccc(Cl)cc2C(=O)Nc2ccc(Cl)cc2)sc2ccccc12 [N-{4-chloro-2-[(4-chlorophenyl)carbamoyl]phenyl}-3-[(dimethylamino)methyl]-1-benzothiophene-2-carboxamide]
